Data taken from US12258561B2, “Compositions and methods to promote bone formation and their uses including for the treatment of cancer” (THE RESEARCH FOUNDATION FOR THE STATE UNIVERSITY OF NEW YORK, priority 2014, dated 2025).

Assays:
[1] = tested on: monocytes cultured to become osteoclasts; assay: TRAP staining and assay of osteoclast number; assay type: cell-based, human, mouse
Method: TRAP Staining and the Assay of Osteoclast Number: Osteoclasts were derived from either an enriched population of human monocytes or from mouse non-enriched whole bone marrow aspirates. Three human patient bone marrow samples were assayed in parallel with samples collected from 3-week (n=10) mouse bone marrow. The monocyte fraction was stimulated to become osteoclasts by culturing 1×10^6 cells with 25-ng/mL of MCSF and 25-ng/mL of recombinant human or mouse RANK-ligand (R&D Systems) in the presence of the met5-ligand ([5-μM] 2.87-, or [50-μM] 28.7-μg; Sigma), naloxone (400-ng or 400-μg; Sigma) or naltrexone (378-ng or 378-μg; Sigma). Osteoclasts were stained with tartrate resistant acid phosphatase (TRAP; Sigma Leukocyte Acid Phosphatase Kit 387-A) and counted when cells stained TRAP-positive and had at least three nuclei. Estimates of osteoclast number were obtained by Cavalieri sampling and a modification of the fractionator technique.

[2] = tested on: RDES Ewing's sarcoma of bone tumor cells; assay: Assay of cell number (MTT), RDES cells; assay type: cell-based; conditions: 1-mM, seventy-two hours
From the text: (§1) Methods: Human bone marrow was collected from consenting adult patients undergoing either an elective primary proximal femoral total hip arthroplasty or elective primary distal femoral total knee arthroplasty (n=6, mean age 65) as a part of an IRB approved study. Human MSC were derived from the adherent fraction of whole bone marrow aspirates. Ewing's sarcoma tumor cells (RDES, Hs822 and Hs863) and SaOS2 osteosarcoma tumor cells were obtained from ATCC. Cells were maintained in Dulbecco's Modification of Eagle's Media (DMEM) containing 10% fetal calf serum (v/v) and 1% penicillin-streptomycin-glutamine (PSG; Cellgro, Mediatech).
(§2) Assay of Cell Number: Following the addition of 1-mM naloxone or 1-mM naltrexone, viable cell number was determined with the MTT assay. After 72-hours and 120-hours, MTT (5 mg/ml (w/v), Sigma) was added to each well, incubated for 2-hours, after which the cells lysed with 500-μl of DMSO (Sigma). MTT was measured at 570-nm and the effects of therapy on cell proliferation were determined by normalizing treated wells relative to mean values from non-treated wells: Fold change in cell number=100*[treated cells optical density/mean control optical density].

[3] = tested on: unicortical defect in mouse tibia; assay: Opioid antagonist containing collagen implant in unicortical defect model, microCT; assay type: in vivo, C57BL/6 mice; conditions: 7 days after surgery
From the text: Implantation of Opioid Antagonist Containing Collagen Implant into a Unicortical Defect Model: Male 5-week old C57BL/6 mice (n=5 per treatment group for a total of 25 total animals) were used in this study. […] Unicortical defects were surgically administered through a small incision (approximately 3-mm) made just below the knee joint, located on the medial side of the tibia just below the tibial tuberosity on the tibial crest. In 5-weeks old male mice, the physeal plate is clearly visible and the drill bit was placed approximately 1-mm below this point. The drill-bit produces a unicortical defect with dimensions 300-μm diameter×1-mm depth. […] In parallel, a separate group of animals served as non-surgical controls. Mice were euthanized 7-days after surgery, hind limbs were collected and tibias were prepared for micro-CT (μCT) analysis.
(§3) MicroCT Analysis of Unicortical Defects: High-resolution images of the tibia were acquired with μCT imaging system (μT40; Scanco Medical). Tibias were scanned at 45-keV with an isotropic voxel size of 12-μm. An analysis region was selected from axial sections to include the entire unicortical defect bounded by the endosteal cortical wall. The volume corrected bone volume (bone volume/total volume; By/Tv), trabecular number (TbN) and trabecular thickness (TbTh) were calculated using the Scanco software.

[4] = tested on: Hs822t Ewing's sarcoma of bone tumor cells; assay: Assay of cell number (MTT), Hs822t cells; assay type: cell-based; conditions: 1-mM, seventy-two hours
From the text: as §1, §2

[5] = tested on: posterolateral lumbar spine; assay: Rat posterolateral spinal fusion of L5-L6 vertebrae, microCT; assay type: in vivo, Sprague-Dawley rats; conditions: 2-months
From the text: Rat Posterolateral Spinal Fusion of L5-L6 Vertebrae: 20 male, […] skeletally mature Sprague-Dawley rats underwent bilateral lumbar posterolateral spinal fusion at the L5-L6 vertebrae. […] Under sterile conditions a 2-cm long posterior midline incision centered at L5-L6 vertebrae was made. A muscle-splitting approach was used, lateral to the facet joints, to expose the transverse processes of a particular vertebra. A high-speed 1-mm burr was used to decorticate the transverse processes of the L5-L6 vertebrae. Implants were prepared and implanted between the transverse processes bilaterally in the paraspinal muscle bed. […] Animals were euthanized 2-months (n=5 rats per time point per treatment group for a total of n=20 rats) spines were collected and prepared for micro-CT (μCT) analysis.

[6] = tested on: SaO52 osteosarcoma tumor cells; assay: Assay of cell number (MTT), osteosarcoma cells; assay type: cell-based; conditions: 1-mM, seventy-two hours
From the text: as §1, §2

MSC = assay: Assay of cell number (MTT) in MSC cultures; assay type: cell-based, human; conditions: 1-mM
Method: as §2

[7] = tested on: unicortical defect in mouse tibia; assay: Unicortical defect model, direct injection, microCT; assay type: in vivo, C57BL/6 mice
Method: Unicortical Defect Model: Male 3-week old C57BL/6 mice (n=5 per treatment group) were injected with met5, naloxone or naltrexone following the creation of a unicortical defect. Briefly, a small incision (approximately 3-mm) was made just below the knee joint, located on the medial side of the tibia just below the tibial tuberosity on the tibial crest. In young animals the physeal plate is clearly visible and the drill bit was placed approximately 1-mm below this point. The drill-bit produces a unicortical defect with dimensions 300-μm diameter×1-mm depth. A Hamilton Neuros RN 10-μL syringe with a 33-gauge blunt tip needle was used to inject 2-μL of met5 (28.7-μg), naloxone (400-μg) or naltrexone (378-μg) resuspended in saline directly into the unicortical defect at a rate no faster than approximately 0.1-μL per second. The left-limb tibias served as contra-lateral surgical controls, in which animals received a unicortical defect and 2-μL of saline was injected. Mice were euthanized 5-days after surgery, hind limbs were collected and tibias were fixed for immunofluorescence, TRAP staining and OTC associated bone growth.
as §3

[8] = collagen implant, 25-ng BMP2, 1-mM naltrexone or 1-mM naloxone

C=CCN1CC[C@]23c4c5ccc(O)c4O[C@H]2C(=O)CC[C@@]3(O)[C@H]1C5 [naloxone]
osteoclast number (TRAP staining) ([1]; 1-mM): reduced osteoclast number substantially | osteoclast number (TRAP staining) ([1]; 1-μM): did not significantly reduce osteoclast number | RDES tumor cell number relative to control cultures [2]: decreased significantly | increase in trabecular thickness relative to all other treatment groups ([3]; 1-mM naloxone with collagen implant): approximately 37% | Bv/Tv relative to non-surgical controls ([3]; collagen implant): increased relative to non-surgical controls | trabecular thickness (TbTh) relative to the control non-surgical group ([3]; collagen implant): increased within the defect significantly | increase in Bv/Tv relative to BMP2 treatment group ([3]; collagen implant, 1-mM): 18.2% | increase in Bv/Tv relative to the PBS treated group [3, 8]: 56.5% | increase in Bv/Tv relative to the surgical control group [3, 8]: 83.8% | Hs822t tumor cell number relative to control cultures [4]: no effect | bone formation in the lumbar spine versus collagen implants alone ([5]; collagen sponge implant, 25-ng BMP2 or 1-mM naloxone): increased bone formation over the collagen implants alone | Bv/Tv relative to spines implanted with collagen or the control sham surgery group ([5]; naloxone infused collagen implant, 1-mM): substantial increase in By/Tv | SaO52 osteosarcoma cell number relative to control cultures [6]: decreased significantly | MSC proliferation (cell number) (MSC; 72-hours): suppressed, but did not stop | MSC proliferation (cell number) (MSC; 120-hours): suppressed, but did not stop | increase in trabecular number (TbN) ([7]; 1-mM injected into defect): 1.2 fold | increase in bone mass (Bv/Tv) ([7]; 1-mM injected into defect, relative to control PBS or met5 treated defects): 1.53 fold | bone healing ([7]; naloxone 1-mM or met5 50-μM): increased bone healing
